Consider one compound from patent publication US20060046966A1, “Antipicornaviral compounds and compositions, their pharmaceutical uses, and materials for their synthesis” (Agouron Pharmaceuticals, Inc., priority 1998, published 2006).

pEC50: −log10 of the molar value.

What is called pEC50 is the negative decadic logarithm of the EC50, by convention in mol/L.

Test [1] deals with HRV (2). Kind of test: Antirhinoviral H1-HeLa cell culture assay, HRV serotype 2. Type of test: cell-based, human rhinovirus. As to conditions: Human rhinovirus sp., H1-HeLa, H1-HeLa cells, XTT. How it is done: (§1) In this cell protection assay, the ability of compounds to protect cells against HRV infection was measured by the XTT dye reduction method, which is described in Weislow et al., J. Natl. Cancer Inst. 1989, vol. 81, 577-586.
(§2) H1-HeLa cells were infected with HRV-14 at a multiplicity of infection (m.o.i.) of 0.13 (virus particles/cell) or mock-infected with medium only. Infected or mock-infected cells were resuspended at 8×10^5 cells per mL, and incubated with appropriate concentrations of the compounds to be tested. Two days later, XTT/PMS was added to test plates and the amount of formazan produced was quantified spectrophotometrically at 450/650 nm. The EC50 value was calculated as the concentration of compound that increased the percentage of formazan production in compound-treated, virus-infected cells to 50% of that produced by compound-free, mock-infected cells. The 50% cytotoxic dose (CC50) was calculated as the concentration of compound that decreased the percentage of formazan produced in compound-treated, mock-infected cells to 50% of that produced by compound-free, mock-infected cells. The therapeutic index (TI) was calculated by dividing the CC50 value by the EC50 value.
(§3) All strains of human rhinovirus (HRV) for use in this assay were purchased from American Type Culture Collection (ATCC), except for HRV serotype-14 (produced from the infectious cDNA clone constructed by Dr. Robert Rueckert, Institute for Molecular Virology, University of Wisconsin, Madison, Wis.). HRV stocks were propagated and viral assays were performed in H1-HeLa cells (ATCC). Cells were grown in minimal essential medium with 10% fetal bovine serum, available from Life Technologies (Gaithersburg, Md.).
The compounds were tested against control compounds WIN 51711, WIN 52084, and WIN 54954 (obtained from Sterling-Winthrop Pharmaceuticals), Pirodavir (obtained from Janssen Pharmaceuticals), and Pleconaril (prepared according to the method described in Diana et al., J. Med. Chem 1995, vol. 38, 1355). Antiviral data obtained for the test compounds are shown in Tables 1 and 3, where all data are for HRV serotype-14 unless otherwise noted in parentheses.

For test [2], the system named is HRV (16). Kind of test: Antirhinoviral H1-HeLa cell culture assay, HRV serotype 16. The test is classed as cell-based. To be noted: Human rhinovirus sp., H1-HeLa cells, XTT. How it is done:
as §1, §2, §3
(§4) The compounds were tested against control compounds WIN 51711, WIN 52084, and WIN 54954 (obtained from Sterling-Winthrop Pharmaceuticals), Pirodavir (obtained from Janssen Pharmaceuticals), and Pleconaril (prepared according to the method described in Diana et al., J. Med. Chem 1995, vol. 38, 1355). […]
On the technique in general: Tetrazolium assays rely on reduction of a dye to a coloured formazan, in cell work by metabolically active cells.

The test system of test [3] is HRV (10). Kind of test: Antirhinoviral H1-HeLa cell culture assay, HRV serotype 10. Type of test: cell-based, human rhinovirus. To be noted: Human rhinovirus sp., H1-HeLa, H1-HeLa cells, XTT. The gist of the method: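 Antiviral EC50 comes from formazan production by infected, compound-treated H1-HeLa cells reaching 50% of the mock-infected, untreated level. Cells grown in MEM/10% FBS were infected at m.o.i. 0.13 and incubated with compound for two days before XTT/PMS addition.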

The test system of test [4] is HRV (3). Description: Antirhinoviral H1-HeLa cell culture assay, HRV serotype 3. Type of test: cell-based, human rhinovirus. To be noted: Human rhinovirus sp., H1-HeLa, H1-HeLa cells, XTT. On the procedure: as §1, §2, §3, §4
For test [5], the system named is HRV (12). Kind of test: Antirhinoviral H1-HeLa cell culture assay, HRV serotype 12. The test is classed as cell-based. As to conditions: Human rhinovirus sp., H1-HeLa cells, XTT. On the procedure: as §1
as §2, with “value. […]” for “value.”

In test [6] the test system is HRV (25). Kind of test: Antirhinoviral H1-HeLa cell culture assay, HRV serotype 25. To be noted: Human rhinovirus sp., H1-HeLa cells, XTT. The test is classed as cell-based. How it is done:
as §1
as §2, with “value. […]” for “value.”

Test [7] concerns HRV (30). Kind of test: Antirhinoviral H1-HeLa cell culture assay, HRV serotype 30. Type of test: cell-based. To be noted: Human rhinovirus sp., H1-HeLa cells, XTT. On the procedure: as §1
as §2, with “value. […]” for “value.”

The test system of test [8] is Coxsackievirus type A-21 (CAV-21). Description: Anticoxsackieviral cell culture assay, CAV-21. The test is classed as cell-based. As to conditions: 48 h, Strain CAV-21, H1-HeLa cells, two days, XTT, read-out: EC50. On the procedure: (§5) Coxsackievirus types A-21 (CAV-21) and B3 (CVB-3) were purchased from American Type Culture Collection (ATCC, Rockville, Md.). Virus stocks were propagated and antiviral assays were performed in H1-HeLa cells (ATCC). Cells were grown in minimal essential medium with 10% fetal bovine serum (Life Technologies, Gaithersburg, Md.).
(§6) The ability of compounds to protect cells against either CAV-21 or CVB-3 infection was measured by the XTT dye reduction method. This method is described in Weislow et al., J. Natl. Cancer Inst. 1989, vol. 81, 577-586. H1-HeLa cells were infected with CAV-21 or CVB-3 at a multiplicity of infection (m.o.i.) of 0.025 or 0.075, respectively, or mock-infected with medium only. H1-HeLa cells were plated at 4×10^4 cells per well in a 96-well plate and incubated with appropriate concentrations of the test compound. One day (CVB-3) or two days (CAV-21) later, XTT/PMS was added to test plates and the amount of formazan produced was quantified spectrophotometrically at 450/650 nm. The EC50 was calculated as the concentration of compound that increased the formazan production in compound-treated, virus-infected cells to 50% of that produced by compound-free, uninfected cells. The 50% cytotoxic dose (CC50) was calculated as the concentration of compound that decreased formazan production in compound-treated, uninfected cells to 50% of that produced in compound-free, uninfected cells. The therapeutic index TI) was calculated by dividing the CC50 by the EC50.
(§7) The compounds were tested against control compounds WIN 54954 (obtained from Sterling-Winthrop Pharmaceuticals), Pirodavir (obtained from Janssen Pharmaceuticals), and Pleconaril (prepared according to Diana et al., J. Med. Chem. 1995, 38, 1355).

Test [9] deals with Coxsackievirus type B3 (CVB-3). Description: Anticoxsackieviral cell culture assay, CVB-3. The test is classed as cell-based. To be noted: 24 h, Strain CVB-3, H1-HeLa cells, one day, XTT, read-out: EC50. How it is done:
as §5, §6, §7

Test [10] concerns enterovirus type 70 (EV 70). Kind of test: Anti-enteroviral cell culture assay, EV 70. Type of test: cell-based. To be noted: Enterovirus D, MRC5, 96 h; Strain EV-70; MRC-5 cells; four days; XTT. How it is done:
Echovirus type 11 (EV 11) and enterovirus type 70 (EV 70) were purchased from ATCC (Rockville, Md.). Virus stocks were propagated and antiviral assays were performed in MRC-5 cells (ATCC). Cells were grown in minimal essential medium with 10% fetal bovine serum (Life Technologies, Gaithersburg, Md.).
The ability of compounds to protect cells against either EV 11 or EV 70 infection was measured by the XTT dye reduction method (Weislow et al., J. Natl. Cancer Inst. 1989, vol. 81, 577-586). MRC-5 cells were infected with EV 11 or EV 70 at an m.o.i. of 0.003 or 0.004, respectively, or mock-infected with medium only. Infected or uninfected cells were added at 1×10^4 cells per well and incubated with appropriate concentrations of compound. Four days later, XTT/PMS was added to test plates, and the amount of formazan produced was quantified spectrophotometrically at 450/650 nm. The EC50 was calculated as the concentration of compound that increased the formazan production in compound-treated, virus-infected cells to 50% of that produced by compound-free, uninfected cells. The 50% cytotoxic dose (CC50) was calculated as the concentration of compound that decreased formazan production in compound-treated, uninfected cells to 50% of that produced in compound-free, uninfected cells. The therapeutic index (TI) was calculated by dividing the CC50 by the EC50. […]

For `CCOC(=O)/C=C/[C@H](C[C@@H]1CCNC1=O)NC(=O)[C@@H](CC(=O)[C@@H](NC(=O)c1cc(C)on1)C(C)C)Cc1ccc(F)cc1` [Compound B-2, Ethyl-3-{(5′-Methylisoxazole-3′-carbonyl)-L-ValΨ(COCH2)-L-(4-F-Phe)-L-((S)-Pyrrol-Ala)}-E-Propenoate], the pEC50 in [1] was 7.70; in test [2], 8.00; in [3], 7.70; in test [4], 7.70; in test [5] it was 7.30; in test [6], 7.52. Moreover, the negative logarithm of the EC50 (pEC50) in test [7] is 7.40; in test [8], 6.80; in test [9], 6.74; in [10], 8.52.
